Measured values reported in patent US20220411378A1, “SMALL MOLECULES POLYMERASE INHIBITORS” (GEORGIA STATE UNIVERSITY RESEARCH FOUNDATION, INC., priority 2019, published 2022).
Entries after “also recorded” stand apart in the source; their conditions may differ. Where two headings read alike, the source gives them in different places.

Columns and labels:
[1] = in vitro; details: African green monkey
[2] = in vitro; details: human
[3] = tested on: HPIV1 isolate 5F6; assay: organism not typed; assay type: cell-based
[4] = Stability in human liver microsomes; assay type: in vitro ADME
Protocol: (§1) To determine stability in plasma, GHP-88309 was incubated in triplicate in pooled human or CD-1 mouse plasma (BioIVT) in glass tubes in a 37° C. shaker-incubator (150 rpm). Procaine and benfluorex served as positive controls and were analyzed in parallel. […] To determine stability in liver microsomes, GHP-88309 was incubated in triplicate in glass tubes in 50 mM Tris-HCl (pH 7.5) buffer with 8 mM MgCl2, 25 μg/mL alamethicin, Phase I and Phase II cofactors (NADPH regenerating system (NRS) and 2 mM UDPGA, respectively) and 0.5 mg total protein pooled mixed gender human liver microsomes (BioIVT) or pooled CD-1 mouse liver microsomes (Xenotech) in a 37° C. shaker incubator (150 rpm). Verapamil served as Phase I positive control, negative controls lacked cofactors and contained 2% (w/v) NaHCO3 in water instead of NRS. Aliquots were taken after 0, 15, […], 30, 60 and 120 minutes and processed as outlined above.

[5] = tested on: MeV; assay type: cell-based
[6] = tested on: clinical isolates of HPIV3; assay type: cell-based
[7] = in vitro; assay type: in vitro ADME; details: plasma
Protocol: as §1

[8] = tested on: MeV L with resistance mutations (LS869P, LI1009F, LY1106S, LS869P/Y942H); assay type: binding
[9] = tested on: recHPIV3-JS-NanoLuc; assay: microbe, parasite or virus in culture; assay type: cell-based
[10] = target: MeV-Edm RdRP (Measles virus, UniProt P12576); assay type: cell-based
[11] = tested on: HPIV3 primary transcription; assay type: cell-based
[12] = target: NiV L (Nipah virus, UniProt Q997F0); assay: cell-based
[13] = Pharmacokinetics analysis in mice; assay type: in vivo
[14] = target: RSV-derived minigenome (Human respiratory syncytial virus A, UniProt P28887); assay type: cell-based
[15] = tested on: HPIV3; assay: microbe, parasite or virus in culture; assay type: cell-based
[16] = tested on: 3D-ALI-HBTEC
[17] = tested on: RSV; assay type: cell-based
[18] = tested on: SeV; set-up: species or system mice; details: mouse, in vivo
[19] = tested on: canine distemper virus (CDV); assay type: cell-based
[20] = tested on: clinical isolates HPIV3-9R4 and HPIV3-10L3; assay: microbe, parasite or virus in culture; assay type: cell-based
[21] = tested on: HPIV3-infected HBTECs; assay type: cell-based, human
[22] = tested on: HPIV1; assay type: cell-based
[23] = tested on: HPIV2; assay type: cell-based
[24] = target: purified MeV P-L proteins (Measles virus, UniProt Q9WMB3); assay type: biochemical
[25] = target: CDV-Onderstepoort RdRP (Canine distemper virus, UniProt P24658); assay type: cell-based
[26] = tested on: influenza A viruses; assay type: cell-based
[27] = tested on: SeV; assay type: cell-based
[28] = target: purified MeV L (L1708) (Measles virus, UniProt Q9WMB3); assay: biochemical; assay type: binding
[29] = tested on: different immortalized cell lines; assay: Cell proliferation / cytotoxicity in cultured immortalized cell lines; assay type: cell-based
[30] = tested on: HPIV3-JS RdRP; assay type: cell-based
[31] = tested on: MeV primary transcription; assay type: cell-based
[32] = Stability in mouse liver microsomes; assay type: in vitro ADME
Protocol: as §1

NC(=O)c1c(F)cccc1-c1cccc2cnccc12 [GHP-88309, 2-fluoro-6-(5-isoquinolyl)benzamide]
CC50 [1]: > 20 µM | CC50 [2]: 1000 µM | EC50 [3]: 0.28 µM | half-life ([4]; both sexes, human, pooled human liver microsomes, pH 7.5, human liver microsomes, read-out: half-life (t1/2)): > 15 h | half-life (t1/2) ([4]; human liver microsomes): 15.3 h | inhibitory activity [5]: Inhibitory activity | potency (EC50) against clinical isolates [5]: low-micromolar to submicromolar | potency (EC50) against clinical isolates [6]: low-micromolar to submicromolar | half-life ([7]; CD-1, mouse): > 15 h | half-life ([7]; human): > 15 h | binding [8]: drastically reduced | EC50 [9]: 0.59 to 1.16 µM | EC50 ([9]; Human respirovirus 3): < 1 µM | EC50 ([9]; Human respirovirus 3, read-out: active concentrations against recHPIV3-JS-NanoLuc): 0.4 to 0.78 µM | inhibition of viral RdRP activity [10]: specific inhibition | viral mRNA amounts during primary transcription [11]: dose-dependent reduction | EC50 [12]: 314 µM | effect of multi-day dosing on PK properties ([13]; 150 mg/kg oral, single vs multi dosing): did not significantly (P>0.82) alter | tolerability ([13]; 5-day multi-dose oral, b.i.d. 150 mg/kg): well tolerated; also recorded: no signs of biotoxicity | organ concentrations ([13]; all soft tissues incl. lung, 60 minutes after plasma Cmax, single oral 150 mg/kg): 70 to 246 nmol/g | concentration at 11.5 h ([13]; female, 129x1/SvJ, mouse, plasma, 150 mg/kg oral b.i.d., 4-day treatment period, read-out: drug plasma concentration at trough): ~34 µM | bioavailability ([13]; female, 129x1/SvJ, mouse, plasma, single-dose oral vs i.v.): ~90% | sustained drug plasma concentrations ([13]; single oral dose 150 mg/kg): > 30 µM | inhibition of viral RdRP activity [14]: not affected | EC50 [15]: 0.105 µM | sterilizing concentration in the basolateral chamber [15]: 10 µM | EC50 ([15]; Human respirovirus 3): 0.09 µM | TEER and tight junction organization [16]: unchanged | inhibitory activity [17]: not inhibited | IFN-β induction in lung tissue [18]: significantly lower | IL12b expression in lung tissue [18]: increased | body temperature [18]: prevented hypothermia | body weight [18]: alleviated body weight losses | clinical signs [18]: significantly alleviated | expression of inflammatory markers (IL-6, TNF, Acod1) [18]: significantly decreased | humoral anti-SeV response of recoverees [18]: robust humoral anti-SeV response | lung histopathology [18]: no statistically significant (P=0.62) pathological changes | lung inflammation and cellular infiltrates [18]: alleviated | outcome of rechallenge [18]: complete survival without development of clinical signs | survival [18]: All treated animals survived; also recorded: complete protection | survival after primary infection [18]: all animals survived | virus load in lungs [18]: significantly reduced | virus load in trachea [18]: significantly reduced | inhibitory activity [19]: Inhibitory activity | EC50 ([20]; Human respirovirus 3, HPIV3-9R4 on HBTEC cultures): 0.07 µM | EC50 ([20]; Human respirovirus 3, HPIV3-10L3 on HBTEC cultures): 0.08 µM | IFN-β levels [21]: did not reduce | ISG expression [21]: enhanced | inhibitory activity [22]: Inhibitory activity | potency (EC50) against clinical isolates [22]: low-micromolar to submicromolar | inhibitory activity [23]: not inhibited | RNA elongation (3′ extension) after back-priming [24]: does not block; also recorded: did not block RNA elongation | de novo RNA synthesis (initiation at the promoter) [24]: inhibits; also recorded: dose-dependent inhibition | inhibition of viral RdRP activity [25]: specific inhibition | inhibitory activity [26]: not inhibited | inhibitory activity [27]: Inhibitory activity | Kd [28]: 6.2 µM | difference between EC50 and KD concentrations [28]: ~10 fold | effect on cell proliferation ([29]; concentration range up to 100 μM): No toxicity was detectable | cytotoxicity ([29]; multi-day incubation, up to 1 mM, infected cells highest 300 μM): no cytotoxicity | inhibition of viral RdRP activity [30]: specific inhibition | viral mRNA amounts during primary transcription [31]: dose-dependent reduction | half-life ([32]; CD-1, mouse, pooled CD-1 mouse liver microsomes, pH 7.5, mouse liver microsomes, read-out: half-life (t1/2)): > 15 h | half-life (t1/2) ([32]; mouse liver microsomes): > 24 h
